Results on 9 molecules are retold here after patent US12473294B2, “Selective modulators of mutant LRRK2 proteolysis and associated methods of use” (Arvinas Operations, Inc., priority 2020, dated 2025).

In assay [1] the target is T1, G2019S LRRK2 (Homo sapiens, UniProt Q5S007, G2019S).
T1 construct: expressed in transfected cells; host or cells: HEK293 (ATCC CRL-1573)
Put plainly: LRRK2 degradation HiBit assay, G2019S LRRK2 tagged with a HiBit tag expressed in HEK293 cells. The following applies: 24 hours compound incubation; for Dmax: HEK293, HEK293 cells. It counts as cell-based. The protocol:
The assay measures the degradation of wildtype and G2019S LRRK2 tagged with a HiBit tag on the C-terminus of the protein that was expressed from a mammalian expression vector, driven by the ubiquitin promoter in HEK293 cells. Each compound dose-response was repeated on three separate days, on three separate plates each day.
(§1) Plasmid Preparation. Transfection mixes were assembled as follows and incubated for 30 minutes at room temperature. In a 15 mL tube, 5.25 mL Opti-MEM (no additions) was mixed with 17 μL Firefly Luciferase plasmid at 1 μg/μL and 158 μL WT plasmid DNA at 1 μg/μL (175 μg total DNA) were mixed by flicking. In a new 15 mL tube, 5.25 mL OptiMEM was mixed with 17 μL Firefly Luciferase plasmid at 1 μg/μL and 158 μL G2019S plasmid DNA at 1 μg/μL (175 μg total DNA) were mixed by flicking. X-tremeGene HP was mixed thoroughly using a vortex. Next, 175 μL was added to each tube and flicked to mix. Both tubes were left to incubate for 30 minutes at room temperature.
While the transfection mixes were incubating, HEK293 cells acquired from ATCC (ATCC CRL-1573) were harvested with trypsin. Once cells are detached, the cells were resuspended in 12 mL OptiMEM+5% FBS and transferred to a 50 mL tube. The cells were mixed well and counted. Using OptiMEM+5% FBS, the cells were diluted in two 250 mL conical tubes at 0.71×10^6 cells/mL in 70 mL. One tube was labeled “WT” and the other “G2019S”. The WT and G2019S transfection mixes were added dropwise to the corresponding 250 mL tubes. The tubes were mixed first by pipetting then by swirling. The tubes were incubated at room temperature for at least 5 minutes.
(§2) Each tube was swirled before dispensing and after every three plates. Seventy microliters of cells were dispensed with WT or G2019S DNA to seven plates each. Three plates of each were tested with compound plate one (preparation described below) and three plates of each were tested with compound plate two (preparation described below). The first plate from each set served as a “prime” plate and was not used to test compounds. Each plate was incubated in the hood for 10 minutes before placing in the 37° C. incubator for 24 hours.
(§3) Preparation of Compound and Assay Plates. Two compound plates were made using 96 well polypropylene plates. Compounds were made up at 10 mM and were diluted to 1 mM in 30 μL. Each dose response curve included a well of DMSO, as a negative control and for normalization, and a well of 0.5 μM of Exemplary Compound 4 as a positive control. In addition to seven test compounds, each plate also included a dose response of Exemplary Compound 4. The compound plates were spun down along at 1200 rpm for 2 minutes.
(§4) The two compound plates were then mixed and 2 μL was diluted in intermediate plates having 248 μL of Opti-Mem in each well. Next, 10 μL diluted compounds from the intermediate plates were added to each test plate (three WT and three G2019S plates per compound plate for a total of 12 assay plates). The plates were incubated for 24 hours at 37° C.
(§5) All assay plates and all Nano-Glo Dual-Luciferase Reporter Assay System components (except for the DLR substrate) were equilibrated to room temperature. Next, the luciferase buffer was mixed with the lyophilized amber bottle until fully dissolved, and 75 μL of the luciferase mixture was added to each well of each assay plate. The assay plates were incubated for 10 minutes at room temperature with shaking for at least 5 minutes, and then read on a plate reader.
(§6) Developing Plates and Analyzing Data. One milliliter of DLR substrate and 1 mL LgBiT Protein were added to the Stop and Glo buffer, and 75 μL of the mixture was added to each well of each plate. Optically clear seals were added to each plate and each plate was incubated for 20 minutes with shaking for at least 10 minutes, and then read on a plate reader. […]

Assay [2] has as its target T2, wildtype LRRK2 (Homo sapiens, UniProt Q5S007).
T2 construct: endogenous in cells; host or cells: HEK293 with HiBit knocked in at the 3' end of the endogenous LRRK2 gene, stably expressing firefly luciferase
Put plainly: LRRK2 degradation HiBit assay, wildtype LRRK2 tagged with a HiBit tag in HEK293 cells. In kind it is cell-based. The settings on record: 24 hours compound incubation; for Dmax: read-out: ** WT Dmax (%); for DC50: read-out: *WT DC50. The protocol:
The assay measures the degradation of wildtype and G2019S LRRK2 tagged with a HiBit tag on the C-terminus of the protein that was expressed from a mammalian expression vector, driven by the ubiquitin promoter in HEK293 cells. Each compound dose-response was repeated on two separate days, on three separate plates each day.
as §1
While the transfection mixes were incubating, HEK293 cells (acquired from ATCC; ATCC CRL-1573) were harvested with trypsin. Once cells are detached, the cells were resuspended in 12 mL OptiMEM+5% FBS and transferred to a 50 mL tube. The cells were mixed well and counted. Using OptiMEM+5% FBS, the cells were diluted in two 250 mL conical tubes at 0.71×10^6 cells/mL in 70 mL. One tube was labeled “WT” and the other “G2019S”. The WT and G2019S transfection mixes were added dropwise to the corresponding 250 mL tubes. The tubes were mixed first by pipetting then by swirling. The tubes were incubated at room temperature for at least 5 minutes.
as §2, §3, §4, §5, §6

T1 sequence (Q5S007 whole entry G2019S): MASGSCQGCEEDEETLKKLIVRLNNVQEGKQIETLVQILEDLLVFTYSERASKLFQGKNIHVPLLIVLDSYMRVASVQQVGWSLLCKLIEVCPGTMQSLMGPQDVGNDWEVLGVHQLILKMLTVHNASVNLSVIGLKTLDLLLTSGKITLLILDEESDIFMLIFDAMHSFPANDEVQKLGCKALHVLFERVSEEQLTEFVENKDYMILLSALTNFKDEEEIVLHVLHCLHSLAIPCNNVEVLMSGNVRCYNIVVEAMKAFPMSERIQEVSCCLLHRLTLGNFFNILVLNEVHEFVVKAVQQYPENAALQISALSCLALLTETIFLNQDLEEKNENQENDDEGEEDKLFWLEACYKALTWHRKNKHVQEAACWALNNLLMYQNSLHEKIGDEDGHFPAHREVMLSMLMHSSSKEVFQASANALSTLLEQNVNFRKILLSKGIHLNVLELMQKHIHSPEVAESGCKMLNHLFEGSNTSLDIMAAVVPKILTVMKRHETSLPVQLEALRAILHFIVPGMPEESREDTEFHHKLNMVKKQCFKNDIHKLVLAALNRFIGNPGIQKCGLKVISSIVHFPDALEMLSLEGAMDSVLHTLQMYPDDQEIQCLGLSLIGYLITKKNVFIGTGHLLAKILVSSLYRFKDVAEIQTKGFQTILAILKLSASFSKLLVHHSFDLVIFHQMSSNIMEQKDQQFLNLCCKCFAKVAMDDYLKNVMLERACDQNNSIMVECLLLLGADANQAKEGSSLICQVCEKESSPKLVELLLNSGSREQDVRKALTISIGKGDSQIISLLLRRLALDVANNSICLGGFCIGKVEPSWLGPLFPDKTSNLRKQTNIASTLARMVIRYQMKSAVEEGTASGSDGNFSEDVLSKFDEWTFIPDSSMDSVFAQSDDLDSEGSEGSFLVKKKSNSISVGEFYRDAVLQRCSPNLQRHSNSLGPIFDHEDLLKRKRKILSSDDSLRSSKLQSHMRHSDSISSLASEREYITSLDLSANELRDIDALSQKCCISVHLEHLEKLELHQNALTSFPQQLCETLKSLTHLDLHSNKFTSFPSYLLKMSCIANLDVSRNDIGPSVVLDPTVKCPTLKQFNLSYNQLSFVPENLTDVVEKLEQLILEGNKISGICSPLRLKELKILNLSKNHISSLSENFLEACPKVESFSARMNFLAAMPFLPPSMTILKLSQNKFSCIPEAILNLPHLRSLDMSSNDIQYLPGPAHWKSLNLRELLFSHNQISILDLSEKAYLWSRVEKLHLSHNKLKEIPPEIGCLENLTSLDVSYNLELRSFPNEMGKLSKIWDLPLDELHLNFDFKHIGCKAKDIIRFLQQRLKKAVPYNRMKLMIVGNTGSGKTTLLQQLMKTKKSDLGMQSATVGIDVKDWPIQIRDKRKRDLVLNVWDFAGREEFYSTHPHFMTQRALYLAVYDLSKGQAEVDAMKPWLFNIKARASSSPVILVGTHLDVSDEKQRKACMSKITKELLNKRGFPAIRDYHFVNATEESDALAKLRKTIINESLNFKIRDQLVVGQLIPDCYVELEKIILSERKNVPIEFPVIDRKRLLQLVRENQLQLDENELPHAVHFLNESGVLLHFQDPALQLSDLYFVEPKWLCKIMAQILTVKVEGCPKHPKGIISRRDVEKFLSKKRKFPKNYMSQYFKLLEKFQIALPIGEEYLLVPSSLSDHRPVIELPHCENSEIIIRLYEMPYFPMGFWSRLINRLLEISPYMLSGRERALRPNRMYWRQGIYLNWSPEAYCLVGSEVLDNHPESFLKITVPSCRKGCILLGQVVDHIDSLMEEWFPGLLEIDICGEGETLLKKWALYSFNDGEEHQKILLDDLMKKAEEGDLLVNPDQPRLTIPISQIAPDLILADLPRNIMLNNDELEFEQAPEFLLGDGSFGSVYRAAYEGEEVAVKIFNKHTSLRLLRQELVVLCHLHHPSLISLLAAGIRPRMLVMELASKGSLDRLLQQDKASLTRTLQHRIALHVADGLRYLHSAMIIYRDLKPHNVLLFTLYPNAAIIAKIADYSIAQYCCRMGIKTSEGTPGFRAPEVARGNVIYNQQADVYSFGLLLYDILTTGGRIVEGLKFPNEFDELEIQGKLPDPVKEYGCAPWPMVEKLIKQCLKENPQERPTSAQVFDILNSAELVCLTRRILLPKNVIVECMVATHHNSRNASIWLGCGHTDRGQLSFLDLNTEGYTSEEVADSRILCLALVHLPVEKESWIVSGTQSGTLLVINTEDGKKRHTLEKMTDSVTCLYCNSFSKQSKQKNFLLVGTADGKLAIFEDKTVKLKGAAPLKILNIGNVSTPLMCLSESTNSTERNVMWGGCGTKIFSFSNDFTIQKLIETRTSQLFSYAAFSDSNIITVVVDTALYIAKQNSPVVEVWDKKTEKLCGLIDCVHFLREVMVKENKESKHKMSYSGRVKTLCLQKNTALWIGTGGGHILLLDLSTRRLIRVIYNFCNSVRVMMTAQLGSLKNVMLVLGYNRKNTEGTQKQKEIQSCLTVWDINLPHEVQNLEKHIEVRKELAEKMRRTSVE
T2 sequence (Q5S007 whole entry): as the sequence (Q5S007 whole entry G2019S) above, with S2019G counted along it

For `CC1=C(C(=O)Nc2ccc3[nH]nc(-c4ccnc(N5CCN(CC6CCN(C7CCN(c8ccc9c(c8)C(=O)N(C8CCC(=O)NC8=O)C9=O)CC7)CC6)CC5)c4)c3c2)[C@@H](C)n2nnnc2N1C` (stereo partly drawn) [compound 18, (7R)-N-(3-(2-(4-((1-(1-(2-(2,6-dioxopiperidin-3-yl)-1,3-dioxoisoindolin-5-yl)piperidin-4-yl)piperidin-4-yl)methyl)piperazin-1-yl)pyridin-4-yl)-1H-indazol-5-yl)-4,5,7-trimethyl-4,7-dihydrotetrazolo[1,5-a]pyrimidine-6-carboxamide], the maximal degradation (Dmax) in assay [1] is 50 to 70%; in assay [2], below 50%. The DC50 in assay [1] (HEK293 cells) was 50 to 100 nM; in assay [2], at least 100 nM.
For the molecule `CC1=C(C(=O)Nc2ccc3[nH]nc(-c4ccnc(N5CCN(CCOCCN6CC7(C6)CN(c6ccc8c(c6)C(=O)N(C6CCC(=O)NC6=O)C8=O)C7)CC5)c4)c3c2)[C@@H](C)n2nnnc2N1C` (stereo partly drawn) [compound 20, (7R)-N-[3-(2-{4-[2-(2-{6-[2-(2,6-dioxopiperidin-3-yl)-1,3-dioxo-2,3-dihydro-1H-isoindol-5-yl]-2,6-diazaspiro[3.3]heptan-2-yl}ethoxy)ethyl]piperazin-1-yl}pyridin-4-yl)-1H-indazol-5-yl]-4,5,7-trimethyl-4H,7H-[1,2,3,4]tetrazolo[1,5-a]pyrimidine-6-carboxamide], the DC50 in assay [1] (HEK293 cells) and in assay [2] was at least 100 nM throughout.
Consider `CC1=C(C(=O)Nc2ccc3[nH]nc(-c4ccnc(N5CCN(CCN6CCN(CC7CCN(c8ccc9c(c8)C(=O)N(C8CCC(=O)NC8=O)C9=O)CC7)CC6)CC5)c4)c3c2)[C@@H](C)n2nnnc2N1C` (stereo partly drawn) [compound 21, (7R)-N-(3-(2-(4-(2-(4-((1-(2-(2,6-dioxopiperidin-3-yl)-1,3-dioxoisoindolin-5-yl)piperidin-4-yl)methyl)piperazin-1-yl)ethyl)piperazin-1-yl)pyridin-4-yl)-1H-indazol-5-y1)-4,5,7-trimethyl-4,7-dihydrotetrazolo[1,5-a]pyrimidine-6-carboxamide], for which the Dmax in assay [1] fell in the range of 50 to 70%. For the same molecule, the half-maximal degradation concentration (DC50) in assay [1] (HEK293 cells) and in assay [2] was at least 100 nM throughout.
For `CC1=C(C(=O)Nc2ccc3[nH]nc(-c4ccnc(N5CCN(CC(F)(F)C6CCN(CC7CCN(c8ccc9c(c8)C(=O)N(C8CCC(=O)NC8=O)C9=O)CC7)CC6)CC5)c4)c3c2)[C@@H](C)n2nnnc2N1C` (stereo partly drawn) [compound 22, (7R)-N-(3-(2-(4-(2-(1-((1-(2-(2,6-dioxopiperidin-3-yl)-1,3-dioxoisoindolin-5-yl)piperidin-4-yl)methyl)piperidin-4-yl)-2,2-difluoroethyl)piperazin-1-yl)pyridin-4-yl)-1H-indazol-5-yl)-4,5,7-trimethyl-4,7-dihydrotetrazolo[1,5-a]pyrimidine-6-carboxamide], the greatest degradation seen (Dmax) in assay [1] and in assay [2] was 50 to 70% throughout. Further, the half-maximal degradation concentration (DC50) in assay [1] (HEK293 cells) and in assay [2] was below 10 nM each time.
Turning to `CC1=C(C(=O)Nc2ccc3[nH]nc(-c4ccnc(N5CCN(CCN6CCC(CC7CCN(c8ccc9c(c8)C(=O)N(C8CCC(=O)NC8=O)C9=O)CC7)CC6)CC5)c4)c3c2)[C@@H](C)n2nnnc2N1C` (stereo partly drawn) [compound 23, (7R)-N-(3-(2-(4-(2-(4-((1-(2-(2,6-dioxopiperidin-3-yl)-1,3-dioxoisoindolin-5-yl)piperidin-4-yl)methyl)piperidin-1-yl)ethyl)piperazin-1-yl)pyridin-4-yl)-1H-indazol-5-yl)-4,5,7-trimethyl-4,7-dihydrotetrazolo[1,5-a]pyrimidine-6-carboxamide], the Dmax in assay [1] and in assay [2] was 50 to 70% in each case. The DC50 in assay [1] (HEK293 cells) fell in the range of 10 to 50 nM; in assay [2] it was 50 to 100 nM.
Turning to `CC1=C(C(=O)Nc2ccc3[nH]nc(-c4ccnc(N5CCN(C6CN(CC7CCN(c8ccc9c(c8)C(=O)N(C8CCC(=O)NC8=O)C9=O)CC7)C6)CC5)c4)c3c2)[C@@H](C)n2nnnc2N1C` (stereo partly drawn) [compound 24, (7R)-N-[3-(2-{4-[1-({1-[2-(2,6-dioxopiperidin-3-yl)-1,3-dioxo-2,3-dihydro-1H-isoindol-5-yl]piperidin-4-yl}methyl)azetidin-3-yl]piperazin-1-yl}pyridin-4-yl)-1H-indazol-5-yl]-4,5,7-trimethyl-4H,7H-[1,2,3,4]tetrazolo[1,5-a]pyrimidine-6-carboxamide], the results for the maximal degradation (Dmax) in assay [1] and in assay [2] were 50 to 70% and below 50%, respectively. Besides, the DC50 in assay [1] (HEK293 cells) and in assay [2] was 10 to 50 nM each time.
For the molecule `CC1=C(C(=O)Nc2ccc3[nH]nc(-c4ccnc(N5CCN(CCN6CCN(CC7CCN(c8ccc9c(c8)C(=O)N(C8CCC(=O)NC8=O)C9=O)CC7)CC6)CC5)c4)c3c2)[C@@H](C)n2nnnc2N1C` (stereo partly drawn) [compound 25, (7R)-N-{3-[2-(4-{2-[4-({1-[2-(2,6-dioxopiperidin-3-yl)-1,3-dioxo-2,3-dihydro-1H-isoindol-5-yl]piperidin-4-yl}methyl)piperazin-1-yl]ethyl}piperazin-1-yl)pyridin-4-yl]-1H-indazol-5-yl}-4,5,7-trimethyl-4H,7H-[1,2,3,4]tetrazolo[1,5-a]pyrimidine-6-carboxamide], in assay [1] (HEK293 cells), the “**G2019S Dmax (%)” value is “A (A ≥ 70)” and the half-maximal degradation concentration (DC50) lay in the range of 10 to 50 nM. Moreover, in assay [2], the maximal degradation (Dmax) was at least 70% and the DC50 was 50 to 100 nM.
`CC1=C(C(=O)Nc2ccc3[nH]nc(-c4ccnc(N5CC6(CN(CC7CCN(c8ccc9c(c8)C(=O)N(C8CCC(=O)NC8=O)C9=O)CC7)C6)C5)c4)c3c2)[C@@H](C)n2nnnc2N1C` (stereo partly drawn) [compound 26, (7R)-N-(3-{2-[6-({1-[2-(2,6-dioxopiperidin-3-yl)-1,3-dioxo-2,3-dihydro-1H-isoindol-5-yl]piperidin-4-yl}methyl)-2,6-diazaspiro[3.3]heptan-2-yl]pyridin-4-yl}-1H-indazol-5-yl)-4,5,7-trimethyl-4H,7H-[1,2,3,4]tetrazolo[1,5-a]pyrimidine-6-carboxamide] showed a Dmax in assay [1] of at least 70%. The half-maximal degradation concentration (DC50) in assay [1] (HEK293 cells) and in assay [2] was at least 100 nM each time.
In assay [1], `CC1=C(C(=O)Nc2ccc3[nH]nc(-c4ccnc(N5CCN(CCN6CCC(CN7CCN(c8ccc9c(c8)C(=O)N(C8CCC(=O)NC8=O)C9=O)CC7)CC6)CC5)c4)c3c2)[C@H](C)n2nnnc2N1C` (stereo partly drawn) [compound 27, (7S)-N-{3-[2-(4-{2-[4-({4-[2-(2,6-dioxopiperidin-3-yl)-1,3-dioxo-2,3-dihydro-1H-isoindol-5-yl]piperazin-1-yl}methyl)piperidin-1-yl]ethyl}piperazin-1-yl)pyridin-4-yl]-1H-indazol-5-yl}-4,5,7-trimethyl-4H,7H-[1,2,3,4]tetrazolo[1,5-a]pyrimidine-6-carboxamide] came in with a maximal degradation (Dmax) of 50 to 70%. Moreover, the DC50 in assay [1] (HEK293 cells) and in assay [2] was at least 100 nM throughout.
